Laboratory results taken from patent US5382578A, “Methods for treating convulsions and ischemia with substituted dibenzoxazepine compounds” (G. D. Searle & Co., priority 1993, dated 1995).
Entries after “also recorded” stand apart in the source; their conditions may differ. Structures can show the parent of a compound that is named as a salt. Where two headings read alike, the source gives them in different places.

Legend:
[1] = biological target: T1, prostaglandin E2-induced contractions of segments of guinea pig ileum (Cavia porcellus, UniProt A0A286XHJ6); assay: Prostaglandin (PGE) Antagonism Assay, guinea pig ileum; format: cell-based; design: key to PGE in guinea pig ileum, activity: Active: the initial concentration used yielded at least a two-fold shift (dose ratio greater than or equal to 2) in the dose response curve for prostaglandin E2
T1 construct: Segments of ileum about 2 cm long were then cut and mounted in a 10-mL tissue bath; from tissue; host or cells: guinea pig ileum segments
T1 sequence (A0A286XHJ6 1-405): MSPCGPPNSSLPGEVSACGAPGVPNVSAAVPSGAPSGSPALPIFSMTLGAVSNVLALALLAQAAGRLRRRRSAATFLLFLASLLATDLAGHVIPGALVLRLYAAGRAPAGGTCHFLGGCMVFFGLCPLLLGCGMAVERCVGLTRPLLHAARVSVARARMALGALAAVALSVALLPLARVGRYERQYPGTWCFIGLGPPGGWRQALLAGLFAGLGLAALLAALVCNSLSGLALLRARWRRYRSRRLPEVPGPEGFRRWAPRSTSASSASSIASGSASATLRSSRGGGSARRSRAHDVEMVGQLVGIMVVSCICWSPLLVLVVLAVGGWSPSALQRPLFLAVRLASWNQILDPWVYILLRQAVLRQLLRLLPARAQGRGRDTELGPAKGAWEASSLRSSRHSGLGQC
Method: In order to determine the effectiveness of several of the compounds of the present invention ("test compounds") as prostaglandin E2 antagonists,a prostaglandin antagonism assay was conducted, as described below, to determine the ability of these compounds to inhibit prostaglandin E2 -induced contractions of segments of guinea pig ileum.
Male albino guinea pigs weighing 200 to 500 grams were sacrificed by cervical dislocation. The ilea were then quickly removed from the guinea pigs and placed in a modified Tyrode solution, a solution which is known to those skilled in the art, containing one-half of the usual amount of magnesium ions.
Segments of ileum about 2 cm long were then cut and mounted in a 10-mL tissue bath containing the modified Tyrode solution. The solution was maintained at 37° C. and aerated with a gaseous mixture of 95% oxygen and 5% carbon dioxide. Data for a control prostaglandin E2 dose response curve plotting concentration of prostaglandin E2 versus the intensity of contractions, detected isotonically, was then obtained by experimentally adjusting the dose of the prostaglandin E2 being injected into the tissue bath, in a manner known by those of skill in the art.
solutions or suspensions containing an initial concentration (3 micromolar) of a test compound in modified Tyrode solution ("test solutions/suspensions") were then separately substituted for the control bath solution. Each test solution/suspension was then kept in constant contact with the ileum tissue, except for brief periods to drain the bath in preparation for rinsing with fresh test solution/suspension. A second prostaglandin E2 dose response curve was then generated for prostaglandin E2 in the presence of a test compound.
A dose ratio of EC50 doses was then calculated from the results of each test in a manner known by those of skill in the art. A test compound was determined to be "active" if the initial concentration used yielded at least a two-fold shift (dose ratio greater than or equal to 2) in the dose response curve for prostaglandin E2.

mouse injected with PBQ = assay: Writhing Assay (PBQ-induced writhing in mice); format: in vivo, Charles River male albino mice; settings: for ED50: Mus musculus
Text: The Writhing Assay is one of the most widely-used experimental procedures for measuring the analgesic activity of different narcotic and nonnarcotic analgesic agents, and involves the continuous, chemically-induced pain of visceral origin to an animal, such as a mouse or rat. [Gyires et al., Arch., int. Pharmacodyn, 267, 131-140 (1984); C. Vander Wende et al., Fed. Proc., 15, 494 (1956); Koster et al., Fed. Proc., 18, 412 (1959); and Witken et al., J. Pharmacol. exp. Ther., 133, 400-408 (1961).] Chemicals which may be used to induce this pain include phenylbenzoquinone (PBQ) and acetic acid. As a result of the chemical irritation to the animal, a characteristic stretching and writhing of the animal (dorsiflexion of the animal's back, extension of its hindlimbs and the strong contraction of its abdominal musculature) will generally occur. […] Drugs which reduce the number of writhes of the animal appear to restore the normal nociceptive threshold of the animal.
Charles River male albino mice, weighing 20 to 30 grams, were used in this assay.
Thirty minutes after subcutaneous or intragastric administration to ten mice of 30 mg per kilogram of body weight of a compound of the present invention ("test compound"), […] per 10 g of body weight of a 0,025% w/v solution of PBQ was injected intraperitoneally into each mouse. Ten mice which were given saline in place of a test compound of the invention were used as a control group.
Five minutes later, each mouse was individually placed into a glass beaker for observation, and the number of writhes occurring during the following ten-minute period was counted.
A test compound was considered to have produced analgesia in a mouse if, in accordance with the conditions set forth above, and under the test criteria employed for this assay, after the administration of 30 mg per kilogram of body weight of a compound of the present invention to the mouse, the number of writhes elicited by a mouse injected with PBQ was equal to, or less than, one-half the median number of writhes recorded for the saline-treated control group of mice that day, as described by Taber in "Predictive Value of Analgesic Assays in Mice and Rats," Advances in Biochemical Psychopharmacology, 8, 191 (1974).
The standard initial screening dose of a test compound employed in this assay was […] for both routes of administration. If this initial screening dose of the test compound produced analgesia in seven of ten mice, then the effect of additional doses of the test compound on the writhing response was evaluated, and then the ED50 dose was generally calculated. (The slopes of the dose-response curves for all test compounds analyzed were compared as described by Tallarida and Murray, Manual of Pharmacologic Calculations, Page 11 (Springer Verlag, New York, 1981)).

[2] = test system: urethane-anesthetized rats; settings: literature; cited from earlier work
[3] = test system: stimulant actions of prostaglandins on isolated smooth muscle preparations; settings: literature; cited from earlier work
[4] = Schild plot calculation, varying concentrations, read-out: PGE in guinea pig ileum (pA2) (converted)
[5] = initial concentration 3 micromolar
[6] = estimated, assuming Schild slope -1.0, initial concentration 3 micromolar, read-out: PGE in guinea pig ileum, Estimated pA2 value (converted)
[7] = po, intragastric, read-out: Writhing Assay ED50 Dose, I.G.
[8] = sc, subcutaneous, read-out: Writhing Assay ED50 Dose, S.C.

Compound | Kb [1, 4] | PGE in guinea pig ileum, activity [1, 5] | Kb [1, 6] | rank order of potency in the Writhing Assay (mouse injected with PBQ) | further results
O=C(CCSCc1cccs1)NCC(=O)N1Cc2ccccc2Oc2ccc(Cl)cc21 [Example 4, N-[2-(8-chlorodibenz-10-11-dihydrobenz[b,f][1,4]oxazepin-10-yl)-2-oxoethyl]-3-[(2-thenylmethyl)thio]propanamide] | 0.0126 µM | Active |  |  | 
CCS(=O)(=O)CCC(=O)NCC(=O)N1Cc2ccccc2Oc2ccc(Cl)cc21 [Example 1, N-[2-(8-chloro-10,11-dihydrodibenz[b,f][1,4]oxazepin-10-yl)-2-oxoethyl]-3-(ethylsulfonyl) propanamide] |  | Active | 2 µM | Example 1>Example 2>Example 3>Example 9; also recorded: the most potent compound of the invention tested in this assay | ED50 (mouse injected with PBQ; [7]): 5.9 mg/kg; ED50 (mouse injected with PBQ; [8]): 11.2 mg/kg
CC(=O)NNC(=O)N1Cc2ccccc2Oc2ccc(Cl)cc21 [SC-19220] |  |  |  |  | effect on bladder capacity [2]: increased the bladder capacity; effect on voiding efficiency of micturition [2]: reduced the voiding efficiency of micturition; effect on stimulant actions of prostaglandins on isolated smooth muscle preparations [3]: inhibit the stimulant actions of prostaglandins on isolated smooth muscle preparations
O=C(Cc1ccccc1)NNC(=O)N1Cc2ccccc2Oc2ccc(Cl)cc21 [SC-18637] |  |  |  |  | effect on stimulant actions of prostaglandins on isolated smooth muscle preparations [3]: inhibit the stimulant actions of prostaglandins on isolated smooth muscle preparations
O=C(CCc1ccncc1)NCC(=O)N1Cc2ccccc2Oc2ccc(Cl)cc21 [Example 3, N-[2-{8-chloro-10,11-dihydrodibenz[b,f][1,4]oxazepin-10-yl)-2-oxoethyl]-4-pyridinepropanamide, monohydrochloride] |  | Active | 2 µM | Example 1>Example 2>Example 3>Example 9 | ED50 (mouse injected with PBQ; [8]): 16.9 mg/kg
O=C(CCSCc1ccco1)NCC(=O)N1Cc2ccccc2Oc2ccc(Cl)cc21 [Example 2, N-[2-(8-chloro-10,11-dihydrodibenz[b,f][1,4]oxazepin-10-yl)-2-oxoethyl]-3[(2-furanylmethyl)thio]propanamide] | 0.01 µM | Active |  | Example 1>Example 2>Example 3>Example 9 | ED50 (mouse injected with PBQ; [7]): 13.5 mg/kg; ED50 (mouse injected with PBQ; [8]): 14.8 mg/kg

Further lines, with some results ahead:

Kb [1, 4] | PGE in guinea pig ileum, activity [1, 5] | Kb [1, 6] | Compound | rank order of potency in the Writhing Assay (mouse injected with PBQ) | further results
 | Active | 1.26 µM | CN(C)CCSCCC(=O)NCC(=O)N1Cc2ccccc2Oc2ccc(Cl)cc21 [Example 6, N-[2-(8-chloro,10,11-dihydrodibenz[b,f][1,4]oxazepin-10-yl)-2-oxoethyl]-3-[[2-(dimethylamino)ethyl]thio]propanamide, monohydrochloride] |  | 
0.0631 µM | Active |  | O=C(CCSCc1ccco1)CNC(=O)N1Cc2ccccc2Oc2ccc(Cl)cc21 [Example 9, 8-chloro-N-[4-[(2-furanylmethyl)thio]-2-oxobutyl]dibenz[b,f][1,4]oxazepin-10(11H]-carboxamide] | Example 1>Example 2>Example 3>Example 9 | 
 | Active | 2.51 µM | CCS(=O)(=O)CCC(=O)CNC(=O)N1Cc2ccccc2Oc2ccc(Cl)cc21 [Example 8, 8-chloro-N-[4-(ethylsulfonyl)-2-oxobutyl]dibenz[b,f][1,4]oxazepin-10(11H)-carboxamide] |  | 
 | Active |  | NCCC(=O)NCC(=O)N1Cc2ccccc2Oc2ccc(Cl)cc21 [Example 5, 3-Amino-N-[2-(8-chloro-10,11-dihydrodibenz[b,f][1,4]oxazepin-10-yl)-2-oxoethyl]-propanamide, monohydrochloride] |  | PGE in guinea pig ileum, Estimated pA2 value ([1]; estimated, assuming Schild slope -1.0, initial concentration 3 micromolar): 5.5
0.316 µM | Active |  | O=C(CCNCc1cccs1)NCC(=O)N1Cc2ccccc2Oc2ccc(Cl)cc21 [Example 7, N-[2-(8-chloro-10,11-dihydrodibenz[b,f][1,4]oxazepin-10-yl)-2-oxoethyl)-3-[(2-thienylmethyl)amino]propanamide, monohydrochloride] |  | 
